This is an account of results in the supplement of paper PMC11208160.
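Also: IS621 bridge recombinase in Escherichia coli cells against a fixed T5 target plasmid.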

This data set can be described thus: recombinant UMI read abundance after kanamycin selection (control-corrected) (log10(CPM+1)); higher = more efficient recombination; extreme values may be limits of the assay; sequences stand for … in AGTGCAGAGAAAATCGGCCAGTTTTCTCTGCCTGCAGTCCGCATGCCGTGGGACCCCTTGGGTTCTAACCTGTTGCCTAGATTTATGCAGCGGACTGCCTTTCTCCCAAAGTGATAAACCGG…AGGTTGGTTTCACT; site = the 11-nt donor. In a few lines:
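Sequencing read counts were converted to CPM, averaged over two replicates and scaled by control-derived factors. Results are given as log10(CPM+1). The reads covered the donor–target junction of recombinant UMIs from a pooled Escherichia coli screen of donor and donor-binding-loop pairs for the IS621 bridge recombinase.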
For the sequence “CGAGGACCATGGACCGGTTTTCCCGGTAATCCGTATTTGGG (site CCAGGACCTCC)”, the “recombinant UMI read abundance (log10)” value was 0.059. For the sequence “CGAGGACCATGGACCGGTTTTCCCGGTAATCCGTATTTGGG (site CGAAGACCTCC)”, the “recombinant UMI read abundance (log10)” value came out at 0. As for “CGAGGACCATGGACCGGTTTTCCCGGTAATCCGTATTTGGG (site CGACGACCTCC)”, the figure is 0.00414; as for “CGAGGACCATGGACCGGTTTTCCCGGTAATCCGTATTTGGG (site CGAGAACCTCC)”, 0.0154. As for “CGAGGACCATGGACCGGTTTTCCCGGTAATCCGTATTTGGG (site CGAGCACCTCC)”, the figure is 0; as for “CGAGGACCATGGACCGGTTTTCCCGGTAATCCGTATTTGGG (site CGAGGAACTCC)”, 0.0189; as for “CGAGGACCATGGACCGGTTTTCCCGGTAATCCGTATTTGGG (site CGAGGACCTAC)”, 0. Turning to “CGAGGACCATGGACCGGTTTTCCCGGTAATCCGTATTTGGG (site CGAGGACCTCA)”, the “recombinant UMI read abundance (log10)” value amounted to 0.0034.

“CGAGGACCATGGACCGGTTTTCCCGGTAATCCGTATTTGGG (site CGAGGACCTCC)”: the “recombinant UMI read abundance (log10)” value turned out to be 0.0104. As for “CGAGGACCATGGACCGGTTTTCCCGGTAATCCGTATTTGGG (site CGAGGACCTCG)”, the figure is 0. Regarding “CGAGGACCATGGACCGGTTTTCCCGGTAATCCGTATTTGGG (site CGAGGACCTCT)”, the “recombinant UMI read abundance (log10)” value was determined as 0.0267. For the sequence “CGAGGACCATGGACCGGTTTTCCCGGTAATCCGTATTTGGG (site CGAGGACCTGC)”, the “recombinant UMI read abundance (log10)” value amounted to 0. As for “CGAGGACCATGGACCGGTTTTCCCGGTAATCCGTATTTGGG (site CGAGGACCTTC)”, the figure is 0.00702; as for “CGAGGACCATGGACCGGTTTTCCCGGTAATCCGTATTTGGG (site CGAGGAGCTCC)”, 0.00291; as for “CGAGGACCATGGACCGGTTTTCCCGGTAATCCGTATTTGGG (site CGAGGATCTCC)”, 0.156.

For the sequence “CGAGGACCATGGACCGGTTTTCCCGGTAATCCGTATTTGGG (site CGAGGCCCTCC)”, the “recombinant UMI read abundance (log10)” value amounted to 0.0207. As for “CGAGGACCATGGACCGGTTTTCCCGGTAATCCGTATTTGGG (site CGAGGGCCTCC)”, the figure is 0.0101; as for “CGAGGACCATGGACCGGTTTTCCCGGTAATCCGTATTTGGG (site CGAGGTCCTCC)”, 0.00323.

With “CGAGGACCATGGACCGGTTTTCCCGGTAATCCGTATTTGGG (site CGAGTACCTCC)”, the “recombinant UMI read abundance (log10)” value stood at 0.

As to “CGAGGACCATGGACCGGTTTTCCCGGTAATCCGTATTTGGG (site CGATGACCTCC)”, the “recombinant UMI read abundance (log10)” value is 0.0104. For “CGAGGACCATGGACCGGTTTTCCCGGTAATCCGTATTTGGG (site CGCGGACCTCC)”, the “recombinant UMI read abundance (log10)” value was 0. With “CGAGGACCATGGACCGGTTTTCCCGGTAATCCGTATTTGGG (site CGGGGACCTCC)” the figure was 0. With “CGAGGACCATGGACCGGTTTTCCCGGTAATCCGTATTTGGG (site CGTGGACCTCC)” the figure was 0.0136. With “CGAGGACCATGGACCGGTTTTCCCGGTAATCCGTATTTGGG (site CTAGGACCTCC)” the figure was 0.00778; with “CGAGGACCATGGACCGGTTTTCCCGGTAATCCGTATTTGGG (site GGAGGACCTCC)”, 0.0223.

Regarding “CGAGGACCATGGACCGGTTTTCCCGGTAATCCGTATTTGGG (site TGAGGACCTCC)”, the “recombinant UMI read abundance (log10)” value was found to be 0.02. On to “CGAGGACCATGGACCGGTTTTCCCGGTAATCCGTATTTGGT (site CGAGGACCTAC)”, for which the “recombinant UMI read abundance (log10)” value amounted to 0.0053. As for “CGAGGACCATGGACCGGTTTTCCCGGTAATCCGTATTTGGT (site CGAGGACCTCC)”, the figure is 0.0157.

Consider “CGAGGACCATGGACCGGTTTTCCCGGTAATCCGTATTTGGT (site CGAGGACCTGC)”, for which the “recombinant UMI read abundance (log10)” value was found to be 0.

For “CGAGGACCATGGACCGGTTTTCCCGGTAATCCGTATTTGGT (site CGAGGACCTTC)”, the “recombinant UMI read abundance (log10)” value came out at 0.0098. With “CGAGGACCATGGACCGGTTTTCCCGGTAATCCGTATTTGTG (site CGAGGACCTCA)” the figure was 0.00285; with “CGAGGACCATGGACCGGTTTTCCCGGTAATCCGTATTTGTG (site CGAGGACCTCC)”, 0.0189. With “CGAGGACCATGGACCGGTTTTCCCGGTAATCCGTATTTGTG (site CGAGGACCTCG)” the figure was 0. As for “CGAGGACCATGGACCGGTTTTCCCGGTAATCCGTATTTGTG (site CGAGGACCTCT)”, the figure is 0.0187; as for “CGAGGAGCATGGACCGGTTTTCCCGGTAATCCGTATTTGGG (site CGAGGAACTCC)”, 0.567. Turning to “CGAGGAGCATGGACCGGTTTTCCCGGTAATCCGTATTTGGG (site CGAGGACCTCC)”, the “recombinant UMI read abundance (log10)” value was 0.0303.

Consider “CGAGGAGCATGGACCGGTTTTCCCGGTAATCCGTATTTGGG (site CGAGGAGCTCC)”, for which the “recombinant UMI read abundance (log10)” value stood at 0.918. With “CGAGGAGCATGGACCGGTTTTCCCGGTAATCCGTATTTGGG (site CGAGGATCTCC)” the figure was 0.704. “CGAGGTCCATGGACCGGTTTTCCCGGTAATCCGTATTTGGG (site CGAGGACCTCC)”: the “recombinant UMI read abundance (log10)” value came to 0.0132. With “CGAGGTCCATGGACCGGTTTTCCCGGTAATCCGTATTTGGG (site CGAGGCCCTCC)” the figure was 0.0189; with “CGAGGTCCATGGACCGGTTTTCCCGGTAATCCGTATTTGGG (site CGAGGGCCTCC)”, 0.0131. With “CGAGGTCCATGGACCGGTTTTCCCGGTAATCCGTATTTGGG (site CGAGGTCCTCC)”, the “recombinant UMI read abundance (log10)” value is 0.0134. With “CGAGGTGCATGGACCGGTTTTCCCGGTAATCCGTATTTGAT (site CAAGGTGCTAT)” the figure was 1.84; with “CGAGGTGCATGGACCGGTTTTCCCGGTAATCCGTATTTGAT (site CCAGGTGCTAT)”, 1.37. As for “CGAGGTGCATGGACCGGTTTTCCCGGTAATCCGTATTTGAT (site CGAGGTGCTAT)”, the figure is 2.36; as for “CGAGGTGCATGGACCGGTTTTCCCGGTAATCCGTATTTGAT (site CTAGGTGCTAT)”, 1.6; as for “CGAGTAGCATGGACCGGTTTTCCCGGTAATCCGTATTTGCC (site CGAGTAGCTGG)”, 1.66. Take “CGAGTATCATGGACCGGTTTTCCCGGTAATCCGTATTTGGC (site CGAGTATCTGC)”: the “recombinant UMI read abundance (log10)” value was found to be 3.08. As for “CGAGTATCATGGACCGGTTTTCCCGGTAATCCGTATTTGGC (site CTAGTATCTGT)”, the figure is 2.29; as for “CGAGTCACATGGACCGGTTTTCCCGGTAATCCGTATTTGGG (site CAAGTCACTCC)”, 0.0136. Consider “CGAGTCACATGGACCGGTTTTCCCGGTAATCCGTATTTGGG (site CCAGTCACTCC)”, for which the “recombinant UMI read abundance (log10)” value was found to be 0.0249. In the case of “CGAGTCACATGGACCGGTTTTCCCGGTAATCCGTATTTGGG (site CGAGTCACTCC)”, the “recombinant UMI read abundance (log10)” value stood at 0.184. As for “CGAGTCACATGGACCGGTTTTCCCGGTAATCCGTATTTGGG (site CTAGTCACTCC)”, the figure is 0.00855; as for “CGAGTGGCATGGACCGGTTTTCCCGGTAATCCGTATTTGAG (site CGAGTGGCTCT)”, 1.85; as for “CGATAATCATGGACCGGTTTTCCCGGTAATCCGTATTTGGT (site CGATAATCTAC)”, 2.74. Take “CGATAATCATGGACCGGTTTTCCCGGTAATCCGTATTTGGT (site CGATCATCTAG)”: the “recombinant UMI read abundance (log10)” value was 0. With “CGATCATCATGGACCGGTTTTCCCGGTAATCCGTATTTGAC (site CGATCATCTAG)” the figure was 0; with “CGATCATCATGGACCGGTTTTCCCGGTAATCCGTATTTGAC (site CGATCATCTGT)”, 1.49; with “CGATCATCATGGACCGGTTTTCCCGGTAATCCGTATTTGCA (site CGATCATCTAG)”, 0. As for “CGATCATCATGGACCGGTTTTCCCGGTAATCCGTATTTGCA (site CGATCATCTCG)”, the figure is 0; as for “CGATCATCATGGACCGGTTTTCCCGGTAATCCGTATTTGCA (site CGATCATCTGG)”, 0. As for “CGATCATCATGGACCGGTTTTCCCGGTAATCCGTATTTGCA (site CGATCATCTTG)”, the figure is 2.31; as for “CGATCATCATGGACCGGTTTTCCCGGTAATCCGTATTTGGG (site CGATCATCTAG)”, 0. As for “CGATCATCATGGACCGGTTTTCCCGGTAATCCGTATTTGGG (site CGATCATCTCC)”, the “recombinant UMI read abundance (log10)” value is 0.00655. With “CGATCCCCATGGACCGGTTTTCCCGGTAATCCGTATTTGAA (site CGATCCCCTTT)” the figure was 0.71; with “CGATCGACATGGACCGGTTTTCCCGGTAATCCGTATTTGTG (site CGATCGACTAA)”, 0.242; with “CGATCGACATGGACCGGTTTTCCCGGTAATCCGTATTTGTG (site CGATCGACTCA)”, 0.139. As to “CGATCGACATGGACCGGTTTTCCCGGTAATCCGTATTTGTG (site CGATCGACTGA)”, the “recombinant UMI read abundance (log10)” value stood at 0.
